Where a SMILES comes first, the peptide text is derived from it. Bridges are numbered along the chain shown (N, C = ends). [ ]: non-standard residue; d: D form. The star is where a group is joined. hPhe(3-Cl-4-CF3) = N[C@@H](CCc1ccc(C(F)(F)F)c(Cl)c1)C(=O)O; NPrPhe(4-CF3) = CCCN[C@@H](Cc1ccc(C(F)(F)F)cc1)C(=O)O; NMeGly(cPent) = CN[C@H](C(=O)O)C1CCCC1; NMeChg = CN[C@H](C(=O)O)C1CCCCC1; NMeI = CC[C@H](C)[C@H](NC)C(=O)O; NMeD = CN[C@@H](CC(=O)O)C(=O)O; Ac4c(3-oxa) = NC1(C(=O)O)COC1; NMeL = CN[C@@H](CC(C)C)C(=O)O; NMeAbu = CC[C@H](NC)C(=O)O; NMeS = CN[C@@H](CO)C(=O)O; Morpholide = C1CN(*)CCO1; NMeA = CN[C@@H](C)C(=O)O; Ac5c = NC1(C(=O)O)CCCC1; Ac4c = NC1(C(=O)O)CCC1; Sar = CNCC(=O)O
Key:
[1] = target: GDP-bound HRAS wild-type protein (Homo sapiens, UniProt P01112); experiment: Binding to HRAS by surface plasmon resonance (SPR), Single Cycle Kinetics; details: KD ratio, GDP-bound HRAS wild-type vs GDP-bound KRAS wild-type, SPR
Sequence of GDP-bound HRAS wild-type protein (P01112 whole entry): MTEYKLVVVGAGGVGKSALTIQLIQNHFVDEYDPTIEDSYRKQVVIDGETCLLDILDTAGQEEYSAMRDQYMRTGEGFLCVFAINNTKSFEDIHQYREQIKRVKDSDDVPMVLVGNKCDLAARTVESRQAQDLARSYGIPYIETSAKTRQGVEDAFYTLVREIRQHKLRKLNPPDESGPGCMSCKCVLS

[2] = target: GDP-bound NRAS wild-type protein (Homo sapiens, UniProt P01111); experiment: Binding to NRAS by surface plasmon resonance (SPR), Single Cycle Kinetics; details: KD ratio, GDP-bound NRAS wild-type vs GDP-bound KRAS wild-type, SPR
Sequence of GDP-bound NRAS wild-type protein (P01111 whole entry): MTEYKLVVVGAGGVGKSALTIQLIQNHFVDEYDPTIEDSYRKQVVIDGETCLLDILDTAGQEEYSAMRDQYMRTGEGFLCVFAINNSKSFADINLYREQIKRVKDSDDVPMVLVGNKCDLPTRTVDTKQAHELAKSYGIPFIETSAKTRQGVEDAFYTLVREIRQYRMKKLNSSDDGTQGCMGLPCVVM

| SMILES | HRAS/KRAS (ratio of KD value for HRAS to KD value for KRAS) [1] | NRAS/KRAS (ratio of KD value for NRAS to KD value for KRAS) [2] |
| --- | --- | --- |
| CC[C@H](C)[C@@H]1NC(=O)[C@H](CC(F)F)N(C)C(=O)C[C@@H](C(=O)N(C)CC)N(C)C(=O)[C@H](C2CCCC2)N(C)C(=O)C2(CC(C)(C)C2)NC(=O)[C@@H]2C[C@H](C)CN2C(=O)[C@H](CCc2ccc(C(F)(F)F)c(Cl)c2)NC(=O)CN(C)C(=O)[C@H](Cc2ccc(C)cc2)N2CC/C=C\C[C@@H](C2=O)N(C)C(=O)CN(C)C1=O [PP1911] | A (a compound having 10 or more and less than 20 is denoted as A) | A (a compound having 10 or more and less than 20 is denoted as A) |
| CCO[C@@H]1C[C@H]2C(=O)NC3(CC(C)(C)C3)C(=O)N(CC)[C@@H](C3CCCC3)C(=O)N(C)[C@H](C(=O)N(C)C)CC(=O)N(C)[C@@H](CC)C(=O)N[C@@H]([C@@H](C)CC)C(=O)N(C)CC(=O)N(C)[C@H]3C/C=C\CCN(C3=O)[C@@H](Cc3ccc(C(F)(F)F)cc3)C(=O)N(C)CC(=O)N[C@@H](CCc3cc(F)c(C(F)(F)F)c(F)c3)C(=O)N2C1 [PP1913] | A (a compound having 10 or more and less than 20 is denoted as A) | A (a compound having 10 or more and less than 20 is denoted as A) |
| CCO[C@@H]1C[C@H]2C(=O)NC3(CC(C)(C)C3)C(=O)N(C)[C@@H](C3CCCC3)C(=O)N(C)[C@H](C(=O)N(C)C)CC(=O)N3CCCCC[C@H]3C(=O)N[C@@H]([C@@H](C)CC)C(=O)N(C)CC(=O)N(C)[C@H]3C/C=C\CCN(C3=O)[C@@H](Cc3ccc(C(F)(F)F)cc3)C(=O)N(C)CC(=O)N[C@@H](CCc3cc(F)c(C(F)(F)F)c(F)c3)C(=O)N2C1 [PP1915] | A (a compound having 10 or more and less than 20 is denoted as A) | A (a compound having 10 or more and less than 20 is denoted as A) |
| CCCN1C(=O)CN(C)C(=O)CN(C)C(=O)[C@H]([C@@H](C)CC)NC(=O)[C@H](CC(C)C)N(C)C(=O)C[C@@H](C(=O)N2CCOCC2)N(C)C(=O)[C@H](C2CCCC2)N(C)C(=O)C2(CCC2)NC(=O)[C@H](C)N(C)C(=O)[C@H](CCc2ccc(C(F)(F)F)c(Cl)c2)NC(=O)CN(C)C(=O)[C@@H]1Cc1ccc(C(F)(F)F)cc1 [PP1916] ([NMeL]I[Sar][Sar][NPrPhe(4-CF3)][Sar][hPhe(3-Cl-4-CF3)][NMeA][Ac4c][NMeGly(cPent)][NMeD]-Morpholide; lactam N-11) | C (A compound having a KD ratio of 0.1 or more and less than 3 is denoted as C) | B (a compound having 3 or more and less than 10 is denoted as B) |
| CCCN(C)C(=O)[C@@H]1CC(=O)N(C)[C@@H](CC(C)C)C(=O)N[C@@H]([C@@H](C)OC)C(=O)N(C)CC(=O)N(C)[C@H]2C/C=C\CCN(C2=O)[C@@H](Cc2ccc(C(F)(F)F)cc2)C(=O)N(C)CC(=O)N[C@@H](CCc2cc(F)c(C(F)(F)F)c(F)c2)C(=O)N2C[C@H](OCC)C[C@H]2C(=O)NC2(CC(C)(C)C2)C(=O)N(C)[C@@H](C2CCCC2)C(=O)N1C [PP1917] | A (a compound having 10 or more and less than 20 is denoted as A) | A (a compound having 10 or more and less than 20 is denoted as A) |
| CCCN1C(=O)CN(C)C(=O)CN(C)C(=O)[C@H]([C@@H](C)CC)NC(=O)[C@H](CC(C)C)N(C)C(=O)C[C@@H](C(=O)N2CCOCC2)N(C)C(=O)[C@H](C2CCCC2)N(C)C(=O)C2(CCC2)NC(=O)[C@H](CC)N(C)C(=O)[C@H](CCc2ccc(C(F)(F)F)c(Cl)c2)NC(=O)CN(C)C(=O)[C@@H]1Cc1ccc(C(F)(F)F)cc1 [PP1918] ([NMeL]I[Sar][Sar][NPrPhe(4-CF3)][Sar][hPhe(3-Cl-4-CF3)][NMeAbu][Ac4c][NMeGly(cPent)][NMeD]-Morpholide; lactam N-11) | C (A compound having a KD ratio of 0.1 or more and less than 3 is denoted as C) | B (a compound having 3 or more and less than 10 is denoted as B) |
| CCO[C@@H]1C[C@H]2C(=O)NC3(CC(C)(C)C3)C(=O)N(C)[C@@H](C3CCCC3)C(=O)N(C)[C@H](C(=O)N(C)CC)CC(=O)N(C)[C@@H](CC(C)C)C(=O)N[C@@H]([C@@H](C)OCC)C(=O)N(C)CC(=O)N(C)[C@H]3C/C=C\CCN(C3=O)[C@@H](Cc3ccc(C(F)(F)F)cc3)C(=O)N(C)CC(=O)N[C@@H](CCc3cc(F)c(C(F)(F)F)c(F)c3)C(=O)N2C1 [PP1919] | A (a compound having 10 or more and less than 20 is denoted as A) | A (a compound having 10 or more and less than 20 is denoted as A) |
| CCCN1C(=O)CN(C)C(=O)CN(C)C(=O)[C@H]([C@@H](C)CC)NC(=O)[C@H](CC(C)C)N(C)C(=O)C[C@@H](C(=O)N2CCOCC2)N(C)C(=O)[C@H](C2CCCC2)N(C)C(=O)C2(CCCC2)NC(=O)[C@H](COC)N(C)C(=O)[C@H](CCc2ccc(C(F)(F)F)c(Cl)c2)NC(=O)CN(C)C(=O)[C@@H]1Cc1ccc(C(F)(F)F)cc1 [PP1920] ([NMeL]I[Sar][Sar][NPrPhe(4-CF3)][Sar][hPhe(3-Cl-4-CF3)][NMeS](Me)[Ac5c][NMeGly(cPent)][NMeD]-Morpholide; lactam N-11) | C (A compound having a KD ratio of 0.1 or more and less than 3 is denoted as C) | B (a compound having 3 or more and less than 10 is denoted as B) |
| CCCO[C@H](C)[C@@H]1NC(=O)[C@H](CC(C)C)N(C)C(=O)C[C@@H](C(=O)N(C)C)N(C)C(=O)[C@H](C2CCCC2)N(C)C(=O)C2(CC(C)(C)C2)NC(=O)[C@@H]2C[C@@H](OCC)CN2C(=O)[C@H](CCc2cc(F)c(C(F)(F)F)c(F)c2)NC(=O)CN(C)C(=O)[C@H](Cc2ccc(C(F)(F)F)cc2)N2CC/C=C\C[C@@H](C2=O)N(C)C(=O)CN(C)C1=O [PP1921] | A (a compound having 10 or more and less than 20 is denoted as A) | A (a compound having 10 or more and less than 20 is denoted as A) |
| CCCN1C(=O)CN(C)C(=O)CN(C)C(=O)[C@H]([C@@H](C)CC)NC(=O)[C@H](CC(C)C)N(C)C(=O)C[C@@H](C(=O)N2CCOCC2)N(C)C(=O)[C@H](C2CCCC2)N(C)C(=O)C2(COC2)NC(=O)[C@@H]2CCCN2C(=O)[C@H](CCc2ccc(C(F)(F)F)c(Cl)c2)NC(=O)CN(C)C(=O)[C@@H]1Cc1ccc(C(F)(F)F)cc1 [PP1922] ([NMeL]I[Sar][Sar][NPrPhe(4-CF3)][Sar][hPhe(3-Cl-4-CF3)]P[Ac4c(3-oxa)][NMeGly(cPent)][NMeD]-Morpholide; lactam N-11) | C (A compound having a KD ratio of 0.1 or more and less than 3 is denoted as C) | B (a compound having 3 or more and less than 10 is denoted as B) |
| CCCN(C)C(=O)[C@@H]1CC(=O)N(C)[C@@H](CC(C)C)C(=O)N[C@@H](C2CCOCC2)C(=O)N(C)CC(=O)N(C)[C@H]2C/C=C\CCN(C2=O)[C@@H](Cc2ccc(C(F)(F)F)cc2)C(=O)N(C)CC(=O)N[C@@H](CCc2cc(F)c(C(F)(F)F)c(F)c2)C(=O)N2C[C@H](OCC)C[C@H]2C(=O)NC2(CC(C)(C)C2)C(=O)N(C)[C@@H](C2CCCC2)C(=O)N1C [PP1923] | A (a compound having 10 or more and less than 20 is denoted as A) | A (a compound having 10 or more and less than 20 is denoted as A) |
| CCC[C@H]1C(=O)N[C@@H]([C@@H](C)CC)C(=O)N2CC[C@H]2C(=O)N(C)[C@H]2C/C=C\CCN(C2=O)[C@@H](Cc2ccc(C(F)(F)F)cc2)C(=O)N(C)CC(=O)N[C@@H](CCc2cc(F)c(C(F)(F)F)c(F)c2)C(=O)N2C[C@H](OCC)C[C@H]2C(=O)NC2(CC(C)(C)C2)C(=O)N(C)[C@@H](C2CCCC2)C(=O)N(C)[C@H](C(=O)N(C)C)CC(=O)N1C [PP1925] | A (a compound having 10 or more and less than 20 is denoted as A) | A (a compound having 10 or more and less than 20 is denoted as A) |
| CCCN1C(=O)CN(C)C(=O)CN(C)C(=O)[C@H]([C@@H](C)CC)NC(=O)[C@H](CC(C)C)N(C)C(=O)C[C@@H](C(=O)N2CCOCC2)N(C)C(=O)[C@H]([C@@H](C)CC)N(C)C(=O)C2(CCCC2)NC(=O)[C@@H]2CCCN2C(=O)[C@H](CCc2ccc(C(F)(F)F)c(Cl)c2)NC(=O)CN(C)C(=O)[C@@H]1Cc1ccc(C(F)(F)F)cc1 [PP1926] ([NMeL]I[Sar][Sar][NPrPhe(4-CF3)][Sar][hPhe(3-Cl-4-CF3)]P[Ac5c][NMeI][NMeD]-Morpholide; lactam N-11) | B (a compound having 3 or more and less than 10 is denoted as B) | B (a compound having 3 or more and less than 10 is denoted as B) |
| CCC[C@H]1C(=O)N[C@@H]([C@@H](C)CC)C(=O)N[C@@H](C)C(=O)N(C)[C@H]2C/C=C\CCN(C2=O)[C@@H](Cc2ccc(C(F)(F)F)cc2)C(=O)N(C)CC(=O)N[C@@H](CCc2cc(F)c(C(F)(F)F)c(F)c2)C(=O)N2C[C@H](OCC)C[C@H]2C(=O)NC2(CC(C)(C)C2)C(=O)N(C)[C@@H](C2CCCC2)C(=O)N(C)[C@H](C(=O)N(C)C)CC(=O)N1C [PP1927] | A (a compound having 10 or more and less than 20 is denoted as A) | A (a compound having 10 or more and less than 20 is denoted as A) |
| CCCN1C(=O)CN(C)C(=O)CN(C)C(=O)[C@H]([C@@H](C)CC)NC(=O)[C@H](CC(C)C)N(C)C(=O)C[C@@H](C(=O)N2CCOCC2)N(C)C(=O)[C@H](C2CCCCC2)N(C)C(=O)C2(CCC2)NC(=O)[C@@H]2CCCN2C(=O)[C@H](CCc2ccc(C(F)(F)F)c(Cl)c2)NC(=O)CN(C)C(=O)[C@@H]1Cc1ccc(C(F)(F)F)cc1 [PP1928] ([NMeL]I[Sar][Sar][NPrPhe(4-CF3)][Sar][hPhe(3-Cl-4-CF3)]P[Ac4c][NMeChg][NMeD]-Morpholide; lactam N-11) | B (a compound having 3 or more and less than 10 is denoted as B) | B (a compound having 3 or more and less than 10 is denoted as B) |
